Data published in ChEMBL document CHEMBL5055639, “ω-Functionalized Lipid Prodrugs of HIV NtRTI Tenofovir with Enhanced Pharmacokinetic Properties” (J Med Chem, 2021).

Legend:
[1] = Cmax in C57BL/6 mouse liver at 10 mg/kg, po measured up to 24 hrs by LC-MS/MS analysis; format: ADME, organism-based; set-up: time < 24 hrs, dose 10 mg/kg, route po; settings: in vivo
[2] = Ratio of prodrug AUC(0 to 24 hrs) to TFV AUC(0 to 24 hrs) in C57BL/6 mouse plasma at 10 mg/kg, po measured up to 24 hrs by LC-MS/MS analysis; format: ADME, organism-based; settings: in vivo
[3] = Ratio of prodrug AUC(0 to 24 hrs) to TFV AUC(0 to 24 hrs) in C57BL/6 mouse liver at 10 mg/kg, po measured up to 24 hrs by LC-MS/MS analysis; format: ADME, organism-based; settings: in vivo
HEK-293T [4] = test: Cytotoxicity against HEK293T cells assessed as reduction in cell viability measured after 48 hrs by CellTiter 96 Aqueous One Solution reagent based cell proliferation assay; settings: human
[5] = Prodrug conversion in C57BL/6 mouse plasma assessed as Cmax of TFV metabolite at 10 mg/kg, po measured up to 24 hrs by LC-MS/MS analysis; format: ADME, organism-based; set-up: time < 24 hrs, dose 10 mg/kg, route po; settings: in vivo
[6] = Prodrug conversion in C57BL/6 mouse plasma assessed as AUC(0 to 24 hrs) of TFV metabolite at 10 mg/kg, po measured up to 24 hrs by LC-MS/MS analysis; format: ADME, organism-based; set-up: time < 24 hrs, dose 10 mg/kg, route po; settings: in vivo
[7] = AUC(0 to 24 hrs) in C57BL/6 mouse plasma at 10 mg/kg, po measured up to 24 hrs by LC-MS/MS analysis; format: ADME, organism-based; set-up: time < 24 hrs, dose 10 mg/kg, route po; settings: in vivo
[8] = Cmax in C57BL/6 mouse plasma at 10 mg/kg, po measured up to 24 hrs by LC-MS/MS analysis; format: ADME, organism-based; set-up: dose 10 mg/kg, time < 24 hrs, route po; settings: in vivo
[9] = Tmax in C57BL/6 mouse liver at 10 mg/kg, po measured up to 24 hrs by LC-MS/MS analysis; format: ADME, organism-based
[10] = tested on: Human immunodeficiency virus; test: Antiviral activity against human immunodeficiency virus expressed in HEK293T cells coexpressing firefly luciferase gene incubated for 48 hrs by Bright-Glo luciferase assay; format: functional, organism-based; settings: Human immunodeficiency virus 1, HEK-293T
[11] = Half life in C57BL/6 mouse plasma at 10 mg/kg, po measured up to 24 hrs by LC-MS/MS analysis; format: ADME, organism-based; settings: in vivo
[12] = Prodrug conversion in C57BL/6 mouse liver assessed as AUC(0 to 24 hrs) of TFV metabolite at 10 mg/kg, po measured up to 24 hrs by LC-MS/MS analysis; format: ADME, organism-based; set-up: time < 24 hrs, dose 10 mg/kg, route po; settings: in vivo
[13] = AUC(0 to 24 hrs) in C57BL/6 mouse liver at 10 mg/kg, po measured up to 24 hrs by LC-MS/MS analysis; format: ADME, organism-based; set-up: time < 24 hrs, dose 10 mg/kg, route po; settings: in vivo
Cytochrome P450 2D6 = Cytochrome P450 2D6 (Homo sapiens, UniProt P10635); test: Inhibition of human recombinant CYP2D6 expressed in insect microsome using (3-[2-([…]-N-methylammonium)-ethyl]-7-methoxy-4-methylcoumarin iodide as a substrate incubated for 30 mins followed by addition of NADPH regenerating system measured immediately by fluorescence based analysis; format: ADME, microsomes
Chain of Cytochrome P450 2D6 (P10635 whole entry): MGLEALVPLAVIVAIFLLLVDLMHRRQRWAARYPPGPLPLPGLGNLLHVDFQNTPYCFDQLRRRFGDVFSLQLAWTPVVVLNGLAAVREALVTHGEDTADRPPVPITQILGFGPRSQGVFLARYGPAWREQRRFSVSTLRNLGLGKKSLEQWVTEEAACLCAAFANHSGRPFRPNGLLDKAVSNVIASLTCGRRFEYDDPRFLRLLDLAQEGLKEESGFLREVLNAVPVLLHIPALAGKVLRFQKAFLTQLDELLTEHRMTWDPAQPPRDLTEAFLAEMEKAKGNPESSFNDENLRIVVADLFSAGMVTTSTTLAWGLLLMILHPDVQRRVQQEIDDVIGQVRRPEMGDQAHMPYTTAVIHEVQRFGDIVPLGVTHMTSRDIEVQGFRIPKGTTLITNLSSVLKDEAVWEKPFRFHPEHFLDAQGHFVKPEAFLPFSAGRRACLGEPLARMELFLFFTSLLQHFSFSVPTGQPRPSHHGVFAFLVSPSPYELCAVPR

[14] = Therapeutic index, ratio of CC50 for cytotoxicity against HEK293T cells to IC50 for antiviral activity against human immunodeficiency virus expressed in HEK293T cells; format: toxicity, cell-based; settings: read-out: Ratio CC50/IC50
[15] = Plasma protein binding in C57BL/6 mouse at 10 mg/kg, po measured up to 24 hrs by LC-MS/MS; format: ADME, organism-based; settings: read-out: PPB
[16] = Prodrug conversion in C57BL/6 mouse liver assessed as Cmax of TFV metabolite at 10 mg/kg, po measured up to 24 hrs by LC-MS/MS analysis; format: ADME, organism-based; set-up: dose 10 mg/kg, time < 24 hrs, route po; settings: in vivo
[17] = Prodrug conversion in C57BL/6 mouse plasma assessed as Tmax of TFV metabolite at 10 mg/kg, po measured up to 24 hrs by LC-MS/MS analysis; format: ADME, organism-based; settings: in vivo
[18] = Tmax in C57BL/6 mouse plasma at 10 mg/kg, po measured up to 24 hrs by LC-MS/MS analysis; format: ADME, organism-based; settings: in vivo
[19] = Metabolic stability in human liver microsomes assessed as half life at 3 uM measured up to 30 min in presence of NADPH by LC-MS/MS analysis; format: ADME, Microsome; settings: 0.5 h
[20] = Prodrug conversion in C57BL/6 mouse liver assessed as Tmax of TFV metabolite at 10 mg/kg, po measured up to 24 hrs by LC-MS/MS analysis; format: ADME, organism-based; settings: in vivo
[21] = tested on: Human immunodeficiency virus; test: Potency index, ratio of test compound IC50 to TXL IC50 for antiviral activity against human immunodeficiency virus expressed in HEK293T cells coexpressing firefly luciferase gene incubated for 48 hrs by Bright-Glo luciferase assay; format: functional
Cytochrome P450 3A4 = Cytochrome P450 3A4 (Homo sapiens, UniProt P08684); test: Inhibition of human recombinant CYP3A4 expressed in insect microsome using 7-benzyloxy-4-trifluoromethylcoumarin as a substrate incubated for 30 mins followed by addition of NADPH regenerating system measured immediately by fluorescence based analysis; format: ADME, microsomes
Chain of Cytochrome P450 3A4 (P08684 whole entry): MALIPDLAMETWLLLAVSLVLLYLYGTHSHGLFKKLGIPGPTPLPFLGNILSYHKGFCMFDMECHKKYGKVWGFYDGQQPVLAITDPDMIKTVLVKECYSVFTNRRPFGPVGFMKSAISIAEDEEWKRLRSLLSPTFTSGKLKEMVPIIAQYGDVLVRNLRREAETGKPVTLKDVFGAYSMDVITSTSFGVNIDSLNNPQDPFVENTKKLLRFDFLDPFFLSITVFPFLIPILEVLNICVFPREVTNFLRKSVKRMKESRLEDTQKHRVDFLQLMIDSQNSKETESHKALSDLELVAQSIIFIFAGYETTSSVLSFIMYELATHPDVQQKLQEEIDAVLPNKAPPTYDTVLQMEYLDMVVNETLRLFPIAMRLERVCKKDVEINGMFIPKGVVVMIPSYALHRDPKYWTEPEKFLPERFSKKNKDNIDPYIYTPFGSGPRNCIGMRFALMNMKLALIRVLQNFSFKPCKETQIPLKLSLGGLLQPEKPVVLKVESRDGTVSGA

HEK-293T [22] = test: Cytotoxicity against HEK293T cells assessed as reduction in cell viability in absence of HSA measured after 48 hrs by CellTiter 96 Aqueous One Solution reagent based cell proliferation assay; settings: human
[23] = Therapeutic index, ratio of CC50 for cytotoxicity against HEK293T cells in absence of HSA to IC50 for antiviral activity against human immunodeficiency virus expressed in HEK293T cells in absence of HSA; format: toxicity, cell-based; settings: read-out: Ratio CC50/IC50
[24] = tested on: Human immunodeficiency virus; test: Antiviral activity against human immunodeficiency virus expressed in HEK293T cells coexpressing firefly luciferase gene incubated for 48 hrs in absence of HSA by Bright-Glo luciferase assay; format: functional, organism-based; settings: Human immunodeficiency virus 1, HEK-293T

Structure (SMILES) | CC50 (HEK-293T [4]) | IC50 [10] | IC50 (Cytochrome P450 2D6) | selectivity ratio [14] | t1/2 [19] | IC50 (Cytochrome P450 3A4) | other results
C[C@H](Cn1cnc2c(N)ncnc21)OCP(=O)(O)OCCCOCCCCCCCCCCCCCC#CC(F)(F)F.N | > 100 µM | 0.023 µM | > 20 µM | > 4350 | > 2 h | – | Cmax [1]: 558 ng/mL; Ratio AUC [2]: 1.51; Ratio AUC [3]: 0.06; Cmax [5]: 42.8 ng/mL; AUC [6]: 425 ng·h/mL; AUC [7]: 643 ng·h/mL; Cmax [8]: 153 ng/mL; Tmax ([9]; C57BL/6, mouse, liver, read-out: Tmax): 1 h; t1/2 [11]: 2.69 h; AUC [12]: 21900 ng·h/mL; AUC [13]: 1310 ng·h/mL; fraction unbound at 24 h [15]: < 0.001; Cmax [16]: 1380 ng/mL; Tmax [17]: 1 h; Tmax [18]: 2 h; Tmax [20]: 4 h
CCCCCCCCCCCCCCCCCCCCOP(=O)(O)CO[C@H](C)Cn1cnc2c(N)ncnc21.N | 13.2 µM | 0.127 µM | 33.2 µM | 104 | – | 50 µM | Ratio IC50 [21]: 7
CCCCCCCCCCCCCCCCCCOP(=O)(O)CO[C@H](C)Cn1cnc2c(N)ncnc21.N | 84.1 µM | 0.094 µM | – | 895 | 0.217 h | – | –
C[C@H](Cn1cnc2c(N)ncnc21)OCP(=O)(O)OCCCCCCCCCCCCCCCCC#C[Si](C)(C)C.N | 68.1 µM | 0.086 µM | – | 792 | > 2 h | – | –
C[C@H](Cn1cnc2c(N)ncnc21)OCP(=O)(O)OCCCCCCCCCCCCCCCCCC#CC(F)(F)F.N | 78.7 µM | – | > 20 µM | 423 | > 2 h | > 20 µM | –
C[C@H](Cn1cnc2c(N)ncnc21)OCP(=O)(O)OCCCOCCCCCCCCCCCCCCCC(F)(F)F.N | > 100 µM | 0.049 µM | > 20 µM | > 2040 | > 2 h | > 20 µM | Ratio AUC [2]: 3.8; Ratio AUC [3]: 4.81; Cmax [5]: 22.1 ng/mL; AUC [6]: 337 ng·h/mL; Tmax ([9]; mouse, in vivo, po, 10 mg/kg, 24 h): 2 h; AUC [12]: 22600 ng·h/mL; fraction unbound at 24 h [15]: < 0.001; Cmax [16]: 1120 ng/mL; Tmax [17]: 8 h; Tmax [18]: 2 h; Tmax [20]: 24 h
C[C@H](Cn1cnc2c(N)ncnc21)OCP(=O)(O)OCCCCCCCCCCCCCCCCCCCC(F)(F)F.N | 72.4 µM | 0.12 µM | > 20 µM | 603 | > 2 h | > 20 µM | –
C[C@H](Cn1cnc2c(N)ncnc21)OCP(=O)(O)O [TENOFOVIR ANHYDROUS] | 35.4 µM | 1.6 µM | > 50 µM | 22 | – | 45.8 µM | CC50 (HEK-293T [22]): > 100 µM; selectivity ratio [23]: > 49; IC50 [24]: 2.06 µM
